# Experimental data reported in patent publication US10238670B2, “9-aminomethyl minocycline compounds and methods of use thereof in urinary tract infection (UTI) treatment” (Paratek Pharmaceuticals, Inc., priority 2016, dated 2019).
# Read-outs that look alike come from different tables or passages of the source.
# Columns and labels:
# [1] = 14C-Compound 1 excretion and kidney/blood distribution in rats; format: in vivo, rat
# [2] = tested on: E. coli isolates, including ESBL+ and quinolone resistance phenotypes; assay: In vitro MIC, 2010 surveillance study of 4171 E. coli isolates; format: cell-based
# [3] = Pharmacokinetics of Compound 1 in mouse plasma versus kidney; format: in vivo
# Ind+ Proteus spp = assay: In vitro MIC, 2010 surveillance isolates; format: cell-based; conditions: N=258
# S. marcescens = assay: In vitro MIC, 2010 surveillance isolates; format: cell-based; conditions: N=424
# K. pneumoniae FQR = assay: In vitro MIC, 2010 surveillance isolates; format: cell-based, Klebsiella pneumoniae; conditions: N=412
# [4] = 14C-Compound 1 excretion and kidney/blood distribution in rats; format: in vivo, rat; conditions: for dose excreted in the urine: IV 5 mg/kg
# Procedure: In rats, based on ^14C-Compound 1 dosed intravenously, approximately 30% of the dose (5 mg/kg) was excreted in the urine, with 25% excreted in the first 24 hours. The remainder of the dose was excreted into the feces. After IV dosing, the concentration of radioactivity in the kidney (cortex: 12,700 ng/g; medulla: 11,500 ng/g; pelvis: 11,300 ng/g) exceeded the blood concentration (1,570 ng/ml) 5 minutes post dose and at 24 hrs post dose (blood: 57.6 ng/ml; kidney cortex 318 ng/g; kidney medulla: 167 ng/g; kidney pelvis: 161 ng/g).
# baseline pathogen = assay: Phase 1b study, per-pathogen microbiological response at PTE (urine culture); format: in vivo, human
# Procedure: At screening and at all study visits (i.e., screening, daily while on treatment, and at EOT and PTE visits) a microbiologic evaluation of the infection under study was performed. A clean-catch midstream urine sample was collected and immediately sent to the local microbiology laboratory for microscopic examination and culture. Quantitative urine culture by appropriate methods was performed using a calibrated loop that would identify bacteria at a lower limit of 1×10^3 CFU/mL. In general, bacteria identified at 1×10^5 colony forming units (CFU)/mL or greater were considered a bacterial pathogen (probability of true pathogen was greater than probability of contamination). In addition, if the same bacteria was isolated in the blood and in the urine at any CFU count it was considered a pathogen. Culture results were to include identification of all pathogens to the level of genus and species. In vitro antimicrobial susceptibility testing of the isolates to antimicrobial drugs that may be used to treat UTIs was performed locally using a standard method chosen by the laboratory. The microbiological outcome was determined programmatically based on the local and Central Laboratory microbiological analyses. For an isolate to be considered a pathogen at screening, it must presented in the urine sample at ≥10^5 CFU/mL or the pathogen should be isolated from both the blood and urine at any CFU count. Microbiological outcome was defined as: • Eradication: […] The pathogens isolated at baseline were presented by genus and species by treatment group. The number and percentage of subjects with a by-subject and by-pathogen eradication, persistence and indeterminate microbiologic response were presented. A listing of all baseline and post-baseline isolates was provided.
# protein = conditions: cited from earlier work
# [5] = Enterococcus faecalis, IV_PO300
# [6] = Overall Gram Negative Pathogens, IV_PO300
# [7] = Overall Gram Negative Pathogens, PO300
# [8] = Overall Gram Negative Pathogens, PO450
# [9] = Overall Gram Positive Pathogens, IV_PO300
# [10] = Overall Gram Positive Pathogens, PO300
# [11] = Overall Gram Positive Pathogens, PO450
# [12] = Staphylococcus saprophyticus, PO450
# [13] = Streptococcus agalactiae - (Group B), PO300
smiles,measurement,setting,value
"CN(C)c1cc(CNCC(C)(C)C)c(O)c2c1C[C@H]1C[C@H]3[C@H](N(C)C)C(O)=C(C(N)=O)C(=O)[C@@]3(O)C(O)=C1C2=O [Compound 1, 9-[(2,2-dimethyl-propylamino)-methyl]-minocycline]","concentration of radioactivity, kidney pelvis","[1]; IV, 5 minutes post dose","11,300 ng/g"
same,"concentration of radioactivity, blood","[1]; IV, 24 hrs post dose",57.6 ng/mL
same,"AUCinf, blood",[1]; oral dosing,3030 ng·h/mL
same,"AUCinf, kidney cortex",[1]; oral dosing,"11,000 ng*h/ml"
same,"AUCinf, kidney medulla",[1]; oral dosing,"10,900 ng*h/ml"
same,"AUCinf, kidney pelvis",[1]; oral dosing,"10,500 ng*h/ml"
same,"Cmax, blood",[1]; oral dosing,125 ng/mL
same,"Cmax, kidney cortex",[1]; oral dosing,721 ng/g
same,"Cmax, kidney medulla",[1]; oral dosing,722 ng/g
same,"Cmax, kidney pelvis",[1]; oral dosing,1580 ng/g
same,isolates with an MIC value <4 μg/mL,[2],> 97%
same,Kp,"[3]; kidney/plasma, sc, Subcutaneous, 4.0 mg/kg, read-out: AUC Ratio Kidney:Plasma",4.2
same,AUC(0-inf),"[3]; plasma, sc, Subcutaneous, 4.0 mg/kg",2820 ng·h/mL
same,Kp,"[3]; tissues including kidney, relative to plasma, subcutaneous, 4 mg/kg, species not printed at b200, read-out: concentrations in tissues including the kidneys relative to plasma",~4
same,Cumulative % Inhibition at MIC,Ind+ Proteus spp; MIC 1 μg/ml,0.8%
same,Cumulative % Inhibition at MIC,Ind+ Proteus spp; MIC 2 μg/ml,3.1%
same,Cumulative % Inhibition at MIC,Ind+ Proteus spp; MIC 4 μg/ml,26.0%
same,Cumulative % Inhibition at MIC,Ind+ Proteus spp; MIC 8 μg/ml,58.1%
same,Cumulative % Inhibition at MIC,Ind+ Proteus spp; MIC 16 μg/ml,73.3%
same,Cumulative % Inhibition at MIC,Ind+ Proteus spp; MIC ≤0.5 μg/ml,0%
same,Cumulative % Inhibition at MIC,Ind+ Proteus spp; MIC ≥32 μg/ml,100%
same,Cumulative % Inhibition at MIC,S. marcescens; MIC 1 μg/ml,0.7%
same,Cumulative % Inhibition at MIC,S. marcescens; MIC 2 μg/ml,20.3%
same,Cumulative % Inhibition at MIC,S. marcescens; MIC 4 μg/ml,76.2%
same,Cumulative % Inhibition at MIC,S. marcescens; MIC 8 μg/ml,91.0%
same,Cumulative % Inhibition at MIC,S. marcescens; MIC 16 μg/ml,93.6%
same,Cumulative % Inhibition at MIC,"S. marcescens; MIC ≤0.5 μg/ml, listed as head image P00017",0%
same,Cumulative % Inhibition at MIC,S. marcescens; MIC ≥32 μg/ml,100%
same,Cumulative % Inhibition at MIC,K. pneumoniae FQR; MIC 1 μg/ml,15.3%
same,Cumulative % Inhibition at MIC,K. pneumoniae FQR; MIC 2 μg/ml,48.8%
same,Cumulative % Inhibition at MIC,K. pneumoniae FQR; MIC 4 μg/ml,72.6%
same,Cumulative % Inhibition at MIC,K. pneumoniae FQR; MIC 8 μg/ml,86.7%
same,Cumulative % Inhibition at MIC,K. pneumoniae FQR; MIC 16 μg/ml,92.7%
same,Cumulative % Inhibition at MIC,"K. pneumoniae FQR; MIC ≤0.5 μg/ml, listed as head image P00012",1.2%
same,Cumulative % Inhibition at MIC,K. pneumoniae FQR; MIC ≥32 μg/ml,100%
same,dose excreted in the urine,[4]; first 24 hours,25%
same,dose excreted in the urine,[4]; total,approximately 30%
same,"concentration of radioactivity, blood","[4]; IV, 5 minutes post dose","1,570 ng/ml"
same,"concentration of radioactivity, kidney cortex","[4]; IV, 5 minutes post dose","12,700 ng/g"
same,"concentration of radioactivity, kidney medulla","[4]; IV, 5 minutes post dose","11,500 ng/g"
same,"concentration of radioactivity, kidney cortex","[4]; IV, 24 hrs post dose",318 ng/g
same,"concentration of radioactivity, kidney medulla","[4]; IV, 24 hrs post dose",167 ng/g
same,"concentration of radioactivity, kidney pelvis","[4]; IV, 24 hrs post dose",161 ng/g
same,Eradication,"baseline pathogen; Aerococcus urinae, PO450",1 (100.0) n (%)
same,Indeterminate,"baseline pathogen; Aerococcus urinae, PO450",0 (0.0) n (%)
same,Persistence,"baseline pathogen; Aerococcus urinae, PO450",0 (0.0) n (%)
same,Eradication,baseline pathogen; [5],1 (100.0) n (%)
same,Indeterminate,baseline pathogen; [5],0 (0.0) n (%)
same,Persistence,baseline pathogen; [5],0 (0.0) n (%)
same,Eradication,"baseline pathogen; Escherichia coli, IV_PO300",3 (100.0) n (%)
same,Indeterminate,"baseline pathogen; Escherichia coli, IV_PO300",0 (0.0) n (%)
same,Persistence,"baseline pathogen; Escherichia coli, IV_PO300",0 (0.0) n (%)
same,Eradication,"baseline pathogen; Escherichia coli, PO300",2 (66.7) n (%)
same,Indeterminate,"baseline pathogen; Escherichia coli, PO300",0 (0.0) n (%)
same,Persistence,"baseline pathogen; Escherichia coli, PO300",1 (33.3) n (%)
same,Eradication,"baseline pathogen; Escherichia coli, PO450",2 (50.0) n (%)
same,Indeterminate,"baseline pathogen; Escherichia coli, PO450",0 (0.0) n (%)
same,Persistence,"baseline pathogen; Escherichia coli, PO450",2 (50.0) n (%)
same,Eradication,"baseline pathogen; Klebsiella pneumoniae, PO300",1 (100.0) n (%)
same,Indeterminate,"baseline pathogen; Klebsiella pneumoniae, PO300",0 (0.0) n (%)
same,Persistence,"baseline pathogen; Klebsiella pneumoniae, PO300",0 (0.0) n (%)
same,Eradication,"baseline pathogen; Klebsiella pneumoniae, PO450",1 (50.0) n (%)
same,Indeterminate,"baseline pathogen; Klebsiella pneumoniae, PO450",0 (0.0) n (%)
same,Persistence,"baseline pathogen; Klebsiella pneumoniae, PO450",1 (50.0) n (%)
same,Eradication,baseline pathogen; [6],6 (100.0) n (%)
same,Indeterminate,baseline pathogen; [6],0 (0.0) n (%)
same,Persistence,baseline pathogen; [6],0 (0.0) n (%)
same,Eradication,baseline pathogen; [7],4 (100.0) n (%)
same,Indeterminate,baseline pathogen; [7],0 (0.0) n (%)
same,Persistence,baseline pathogen; [7],1 (25.0) n (%)
same,Eradication,baseline pathogen; [8],3 (50.0) n (%)
same,Indeterminate,baseline pathogen; [8],0 (0.0) n (%)
same,Persistence,baseline pathogen; [8],3 (50.0) n (%)
same,Eradication,baseline pathogen; [9],1 (100.0) n (%)
same,Indeterminate,baseline pathogen; [9],0 (0.0) n (%)
same,Persistence,baseline pathogen; [9],0 (0.0) n (%)
same,Eradication,baseline pathogen; [10],1 (100.0) n (%)
same,Indeterminate,baseline pathogen; [10],0 (0.0) n (%)
same,Persistence,baseline pathogen; [10],0 (0.0) n (%)
same,Eradication,baseline pathogen; [11],2 (100.0) n (%)
same,Indeterminate,baseline pathogen; [11],0 (0.0) n (%)
same,Persistence,baseline pathogen; [11],0 (0.0) n (%)
same,Eradication,"baseline pathogen; Proteus mirabilis, IV_PO300",3 (100.0) n (%)
same,Indeterminate,"baseline pathogen; Proteus mirabilis, IV_PO300",0 (0.0) n (%)
same,Persistence,"baseline pathogen; Proteus mirabilis, IV_PO300",0 (0.0) n (%)
same,Eradication,"baseline pathogen; Proteus mirabilis, PO300",1 (100.0) n (%)
same,Indeterminate,"baseline pathogen; Proteus mirabilis, PO300",0 (0.0) n (%)
same,Persistence,"baseline pathogen; Proteus mirabilis, PO300",0 (0.0) n (%)
same,Eradication,baseline pathogen; [12],1 (100.0) n (%)
same,Indeterminate,baseline pathogen; [12],0 (0.0) n (%)
same,Persistence,baseline pathogen; [12],0 (0.0) n (%)
same,Eradication,baseline pathogen; [13],1 (100.0) n (%)
same,Indeterminate,baseline pathogen; [13],0 (0.0) n (%)
same,Persistence,baseline pathogen; [13],0 (0.0) n (%)
CN(C)c1cc(NC(=O)CNC(C)(C)C)c(O)c2c1C[C@H]1C[C@H]3[C@H](N(C)C)C(O)=C(C(N)=O)C(=O)[C@@]3(O)C(O)=C1C2=O [Tigecycline],protein binding,"protein; 0.1 μg/mL, ultracentrifugation",73%
same,protein binding,"protein; 0.1 μg/mL, ultrafiltration",71%
same,protein binding,"protein; 1.0 μg/mL, ultracentrifugation",79%
same,protein binding,"protein; 1.0 μg/mL, ultrafiltration",87%
same,"protein binding, Ultracentrifugation",protein; Concentration 100 ng/mL,73%
same,"protein binding, Ultrafiltration",protein; Concentration 100 ng/mL,71%
same,"protein binding, Ultracentrifugation","protein; Concentration 1,000 ng/mL",79%
same,"protein binding, Ultrafiltration","protein; Concentration 1,000 ng/mL",87%
